A short description of data set [1]: Dissociation constant , pKa of the compound. Type of data set: physicochemical.
For data set [2], the system named is A549. The data set can be described thus: Cytotoxicity against human A549 cells assessed as cell growth inhibition incubated for 120 hrs by CCK-8 assay. The data set is classed as functional, cell-based. The conditions noted are these: A549, 120 h.
The nature of data set [3]: Prodrug activation in human A549 cells xenografted in nude mouse assessed as drug release by measuring reduction in blue fluorescence at 5 mg/kg, iv in presence of bis(pinacolato)diboron administered every 5 mins for 1 hr by DAPI staining based confocal laser scanning microscopy. The data set is classed as organism-based. Conditions: in vivo; call rule not given here.
Data set [4] is described as follows: Prodrug activation in human A549 cells xenografted in nude mouse assessed as drug release by measuring increase in yellow fluorescence at 5 mg/kg, iv in presence of bis(pinacolato)diboron administered every 5 mins for 1 hr by FITC staining based confocal laser scanning microscopy. The conditions noted are these: in vivo. Type of data set: organism-based. Background: In xenograft studies the graft and the host belong to different species.

Data set [5] deals with A549. Kind of data set: Cytotoxicity against human A549 cells assessed as cell growth inhibition incubated for 120 hrs in presence of bis(pinacolato)diboron by CCK-8 assay. The data set is classed as functional, cell-based. The conditions noted are these: A549, 120 h.
Data set [6] is described as follows: Prodrug activation in human A549 cells xenografted in nude mouse assessed as drug release by measuring increase in yellow fluorescence at 5 mg/kg, iv administered every 5 mins for 1 hr by FITC staining based confocal laser scanning microscopy. Type of data set: organism-based. Conditions: in vivo.
Data set [7] is described as follows: Drug uptake in human A549 cells assessed as drug internalization by measuring increase in fluorescence intensity at 100 uM incubated for 1 hr by FITC staining based confocal fluorescence microscopy. The conditions noted are these: a549, 1 h. The data set is classed as ADME, cell-based.
Data set [8] concerns A549. Kind of data set: Cytotoxicity against human A549 cells assessed as reduction in cell viability incubated for 72 hrs in presence of bis(pinacolato)diboron by CCK-8 assay. The data set is classed as functional, cell-based. Conditions: A549, 72 h.
A short description of data set [9]: Solubility of compound in PBS. The data set is classed as physicochemical. The conditions noted are these: buffer.
Data set [10] can be described thus: Prodrug activation in human A549 cells assessed as increase in yellow fluorescence at 100 nM incubated for 72 to 120 hrs using FITC staining based laser confocal fluorescence microscopy. Type of data set: cell-based. The conditions noted are these: a549, 0.1 µM, time 72-120 hrs.
Data set [11] is described as follows: Prodrug activation in human A549 cells assessed as SN-38 release by measuring increase in blue fluorescence intensity at 100 uM in presence of bis(pinacolato)diboron incubated for 1 hr by DAPI staining based confocal fluorescence microscopy. Type of data set: cell-based. The conditions noted are these: a549, 1 h.
Data set [12] is described as follows: Prodrug activation in human A549 cells assessed as reduction in blue fluorescence at 100 nM incubated for 72 to 120 hrs using DAPI staining based laser confocal fluorescence microscopy. The data set is classed as cell-based. The conditions noted are these: a549, 0.1 µM, time 72-120 hrs.
Data set [13] is described as follows: Prodrug activation in human A549 cells assessed as SN-38 release by measuring increase in yellow fluorescence at 100 uM in presence of bis(pinacolato)diboron incubated for 1 hr by FITC staining based confocal fluorescence microscopy. Type of data set: cell-based. The conditions noted are these: a549, 1 h.
Data set [14] can be described thus: Cytotoxicity against HEK293T cells assessed as reduction in cell viability measured after 72 hrs by CCK-8 assay. Conditions: human. The data set is classed as toxicity, cell-based, HEK-293T.
The nature of data set [15]: Drug uptake in human A549 cells assessed as drug internalization by measuring blue fluorescence at 100 uM incubated for 1 hr by DAPI staining based confocal fluorescence microscopy. Type of data set: ADME, cell-based. The conditions noted are these: a549, 1 h.
A short description of data set [16]: Stability of the prodrug in PBS at pH 6.5 assessed as suppression of hydrolytic opening of the lactone ring by LC-MS analysis. The data set is classed as physicochemical. The conditions noted are these: buffer.
Data set [17] can be described thus: Stability of prodrug in PBS at pH 7.4 assessed as retention time of drug released measured after 24 hrs by LC-MS analysis. The data set is classed as physicochemical. The conditions noted are these: buffer, pH 7.4, 24 h.
Data set [18] deals with A549. The data set can be described thus: Cytotoxicity against human A549 cells assessed as reduction in cell viability measured after 72 hrs by CCK-8 assay. Type of data set: functional, cell-based. Conditions: A549, 72 h. Background: Formazan colour is commonly taken as a measure of viable cells.
A short description of data set [19]: Stability of prodrug in PBS at pH 7.4 assessed as 7-hydroxylcoumarin formation at 1 uM measured after 24 hrs by HPLC analysis. Type of data set: physicochemical. Conditions: buffer, pH 7.4, 24 h.

Usually pKa stands for the pH at which an ionisable group is half protonated. A lower pKa goes with a group that gives up its proton readily. Broadly, the IC50 is the concentration at which inhibition is half-maximal. By solubility is commonly meant the dissolved amount per volume that the medium holds.

Values after ≈ are worked out from the molar mass of the structure shown. Some results are limits rather than exact numbers.

On to `Nc1ccc(CO)cc1`, for which the pKa in data set [1] is 9.68.

Turning to `CCc1c2c(nc3ccc(OCc4ccc([N+](C)(C)[O-])cc4)cc13)-c1cc3c(c(=O)n1C2)COC(=O)[C@]3(O)CC`, the concentration for half-maximal inhibition (IC50) with A549 [2] is 17.1 nM; in the data set with A549 [5], 9.2 nM; in the data set on A549 [8] it was 29.6 nM; with A549 [18] it was 128 nM. The Drug metabolism entry in data set [3] was “Metabolite_Detected”; in data set [4], “Metabolite_Detected”; in [6] it was “Metabolite_Notdetected”; in data set [10], “Metabolite_Detected”; in [11], “Metabolite_Detected”; in data set [12] it was “Metabolite_Detected”. For the same molecule, the Drug metabolism entry in data set [13] is “Metabolite_Detected”. Besides, the Drug uptake entry in data set [7] and in [15] was “Active” throughout. The same molecule showed a solubility in data set [9] of 3.2736 µM (≈ 1.77 µg/mL). The half-maximal inhibitory concentration (IC50) at 72 h in data set [14] worked out at 66.3 nM. In data set [16], the Stability entry is reported as “Stable”. Moreover, the Retention_time in data set [17] worked out at 1.8 min.

For the molecule `CN(C)c1ccc(CO)cc1`, in [14], the IC50 at 72 h was > 100000 nM.

Consider `C[N+](C)([O-])c1ccc(COc2ccc3ccc(=O)oc3c2)cc1`, for which the Stability result in data set [19] is “Stable”.

In the case of `CCc1c2c(nc3ccc(O)cc13)-c1cc3c(c(=O)n1C2)COC(=O)[C@]3(O)CC` [7-ETHYL-10-HYDROXYCAMPTOTHECIN], the IC50 is 3.8 nM with A549 [2] and 11.9 nM in the data set with A549 [18]. In [1], this molecule yielded a pKa of 9.2. Further, the solubility in data set [9] amounted to 0.01101 µM (≈ 0.00432 µg/mL). Besides, the 50% inhibitory concentration (IC50) at 72 h in [14] stood at 14.2 nM.

The record behind these values is ChEMBL document CHEMBL5154677, “On-Demand Activation of a Bioorthogonal Prodrug of SN-38 with Fast Reaction Kinetics and High Releasing Efficiency In Vivo” (J Med Chem, 2022).
